PubChem BioAssay (NCI)
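Following 48 hours of exposure in 96-well plates, responses at five concentrations were used to interpolate endpoints linearly. TGI is the concentration that stops growth completely.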

Legend:
Experiment in all cases: inhibition of tumour cell growth, NCI panel, 48 h
KM12 colon = system: KM12 colon
IGROV1 ovarian = system: IGROV1 ovarian
UACC-257 melanoma = system: UACC-257 melanoma
NCI-H226 lung = system: NCI-H226 lung
RXF-631 renal = system: RXF-631 renal
MOLT-4 leukemia = system: MOLT-4 leukemia
HCT-15 colon = system: HCT-15 colon
SK-MEL-5 melanoma = system: SK-MEL-5 melanoma
RPMI-8226 leukemia = system: RPMI-8226 leukemia
OVCAR-3 ovarian = system: OVCAR-3 ovarian
M14 melanoma = system: M14 melanoma
DMS 273 small cell lung = system: DMS 273 small cell lung
NCI-H460 lung = system: NCI-H460 lung
SW-620 colon = system: SW-620 colon
A549 NSCLC = system: A549 NSCLC
M19-MEL melanoma = system: M19-MEL melanoma
UO-31 renal = system: UO-31 renal
OVCAR-4 ovarian = system: OVCAR-4 ovarian
SK-OV-3 ovarian = system: SK-OV-3 ovarian
A498 renal = system: A498 renal
HL-60(TB) leukemia = system: HL-60(TB) leukemia
HCT-116 colon = system: HCT-116 colon
SNB-19 CNS = system: SNB-19 CNS
SNB-78 CNS = system: SNB-78 CNS
CCRF-CEM leukemia = system: CCRF-CEM leukemia
SK-MEL-28 melanoma = system: SK-MEL-28 melanoma
TK-10 renal = system: TK-10 renal
KM20L2 colon = system: KM20L2 colon
DMS 114 small cell lung = system: DMS 114 small cell lung
HOP-92 NSCLC = system: HOP-92 NSCLC
DLD-1 colon = system: DLD-1 colon
HOP-18 NSCLC = system: HOP-18 NSCLC
ACHN renal = system: ACHN renal
SF-268 CNS = system: SF-268 CNS
K-562 leukemia = system: K-562 leukemia
HT29 colon = system: HT29 colon
OVCAR-8 ovarian = system: OVCAR-8 ovarian
COLO 205 colon = system: COLO 205 colon
EKVX NSCLC = system: EKVX NSCLC
XF 498 CNS = system: XF 498 CNS
LOX IMVI melanoma = system: LOX IMVI melanoma
SK-MEL-2 melanoma = system: SK-MEL-2 melanoma
SR leukemia = system: SR leukemia
UACC-62 melanoma = system: UACC-62 melanoma
CAKI-1 renal = system: CAKI-1 renal
U251 CNS = system: U251 CNS
SF-539 CNS = system: SF-539 CNS
LXFL 529 NSCLC = system: LXFL 529 NSCLC
HCC-2998 colon = system: HCC-2998 colon
SNB-75 CNS = system: SNB-75 CNS
OVCAR-5 ovarian = system: OVCAR-5 ovarian
HOP-62 NSCLC = system: HOP-62 NSCLC
NCI-H522 lung = system: NCI-H522 lung
RXF 393 renal = system: RXF 393 renal
786-0 renal = system: 786-0 renal
MALME-3M melanoma = system: MALME-3M melanoma
SN12C renal = system: SN12C renal
SF-295 CNS = system: SF-295 CNS
NCI-H23 lung = system: NCI-H23 lung
MDA-MB-435 = system: MDA-MB-435
MDA-MB-231 breast = system: MDA-MB-231 breast
T-47D breast = system: T-47D breast
MCF7 breast = system: MCF7 breast
NCI/ADR-RES ovarian = system: NCI/ADR-RES ovarian
MDA-N = system: MDA-N
BT-549 breast = system: BT-549 breast
PC-3 prostate = system: PC-3 prostate
DU-145 prostate = system: DU-145 prostate

## COc1ccc2c(c1)CC1c3c(ccc(OC)c3O)CC2N1C (stereo not drawn)
KM12 colon
  TGI: > 89.8 µM
IGROV1 ovarian
  TGI: > 100 µM
UACC-257 melanoma
  TGI: 50.6 µM
NCI-H226 lung
  TGI: > 100 µM
RXF-631 renal
  TGI: 47.1 µM
MOLT-4 leukemia
  TGI: 73.8 µM
HCT-15 colon
  TGI: > 100 µM
SK-MEL-5 melanoma
  TGI: 32.7 µM
RPMI-8226 leukemia
  TGI: 53.2 µM
OVCAR-3 ovarian
  TGI: > 100 µM
M14 melanoma
  TGI: 32 µM
DMS 273 small cell lung
  TGI: 45.2 µM
NCI-H460 lung
  TGI: 38.8 µM
SW-620 colon
  TGI: 45.4 µM
A549 NSCLC
  TGI: > 100 µM
M19-MEL melanoma
  TGI: 56.9 µM
UO-31 renal
  TGI: > 100 µM
OVCAR-4 ovarian
  TGI: > 100 µM
SK-OV-3 ovarian
  TGI: > 100 µM
A498 renal
  TGI: > 100 µM
HL-60(TB) leukemia
  TGI: 40.3 µM
HCT-116 colon
  TGI: 47.3 µM
SNB-19 CNS
  TGI: > 100 µM
SNB-78 CNS
  TGI: 97 µM
CCRF-CEM leukemia
  TGI: 80.6 µM
SK-MEL-28 melanoma
  TGI: 43.8 µM
TK-10 renal
  TGI: > 100 µM
KM20L2 colon
  TGI: > 70 µM
DMS 114 small cell lung
  TGI: 38.8 µM
HOP-92 NSCLC
  TGI: 70.9 µM
DLD-1 colon
  TGI: > 100 µM
HOP-18 NSCLC
  TGI: > 100 µM
ACHN renal
  TGI: > 100 µM
SF-268 CNS
  TGI: > 100 µM
K-562 leukemia
  TGI: 58.9 µM
HT29 colon
  TGI: 57.5 µM
OVCAR-8 ovarian
  TGI: > 81.3 µM
COLO 205 colon
  TGI: 34.8 µM
EKVX NSCLC
  TGI: > 84.3 µM
XF 498 CNS
  TGI: 62.3 µM
LOX IMVI melanoma
  TGI: 38.9 µM
SK-MEL-2 melanoma
  TGI: 37.1 µM
SR leukemia
  TGI: 45.4 µM
UACC-62 melanoma
  TGI: > 100 µM
CAKI-1 renal
  TGI: > 100 µM
U251 CNS
  TGI: > 59.3 µM
SF-539 CNS
  TGI: 54.6 µM
LXFL 529 NSCLC
  TGI: 39 µM
HCC-2998 colon
  TGI: 30.8 µM
SNB-75 CNS
  TGI: > 100 µM
OVCAR-5 ovarian
  TGI: > 100 µM
HOP-62 NSCLC
  TGI: > 100 µM
NCI-H522 lung
  TGI: 37.9 µM
RXF 393 renal
  TGI: 43.6 µM
786-0 renal
  TGI: > 73.3 µM
MALME-3M melanoma
  TGI: 29.4 µM
SN12C renal
  TGI: > 100 µM
SF-295 CNS
  TGI: 47.1 µM
NCI-H23 lung
  TGI: > 100 µM

## COc1cccc2c1C(=O)c1c(O)c3c(c(O)c1C2=O)C[C@@](O)(C(=O)CO)CC3OC1CC(O)C(O)C(C)O1 (stereo partly drawn)
KM12 colon
  TGI: 7.49 µM
MDA-MB-435
  TGI: 2.05 µM
IGROV1 ovarian
  TGI: 23.6 µM
UACC-257 melanoma
  TGI: 2.99 µM
NCI-H226 lung
  TGI: 0.219 µM
RXF-631 renal
  TGI: 21.2 µM
MDA-MB-231 breast
  TGI: 6 µM
HCT-15 colon
  TGI: 5.89 µM
SK-MEL-5 melanoma
  TGI: 0.687 µM
OVCAR-3 ovarian
  TGI: 11.3 µM
M14 melanoma
  TGI: 1.88 µM
DMS 273 small cell lung
  TGI: 0.4 µM
NCI-H460 lung
  TGI: 1.8 µM
SW-620 colon
  TGI: 17.3 µM
A549 NSCLC
  TGI: 3.99 µM
M19-MEL melanoma
  TGI: 1.96 µM
UO-31 renal
  TGI: 2.41 µM
T-47D breast
  TGI: 5.44 µM
OVCAR-4 ovarian
  TGI: 6.85 µM
SK-OV-3 ovarian
  TGI: 7.29 µM
A498 renal
  TGI: 1.29 µM
HL-60(TB) leukemia
  TGI: 0.55 µM
HCT-116 colon
  TGI: 0.572 µM
SNB-19 CNS
  TGI: 2.93 µM
SNB-78 CNS
  TGI: 9.41 µM
MCF7 breast
  TGI: 21.6 µM
CCRF-CEM leukemia
  TGI: > 35.4 µM
SK-MEL-28 melanoma
  TGI: 2.28 µM
TK-10 renal
  TGI: 11.6 µM
NCI/ADR-RES ovarian
  TGI: 12.5 µM
KM20L2 colon
  TGI: 6.28 µM
DMS 114 small cell lung
  TGI: 0.958 µM
HOP-92 NSCLC
  TGI: 2.26 µM
DLD-1 colon
  TGI: 10.8 µM
HOP-18 NSCLC
  TGI: 6.06 µM
ACHN renal
  TGI: 0.598 µM
SF-268 CNS
  TGI: 1.81 µM
K-562 leukemia
  TGI: 5.51 µM
HT29 colon
  TGI: 4.25 µM
OVCAR-8 ovarian
  TGI: 9.78 µM
EKVX NSCLC
  TGI: 7.49 µM
MDA-N
  TGI: 1.98 µM
XF 498 CNS
  TGI: 1.24 µM
LOX IMVI melanoma
  TGI: 2.53 µM
SK-MEL-2 melanoma
  TGI: 1.58 µM
UACC-62 melanoma
  TGI: 0.492 µM
CAKI-1 renal
  TGI: 12.1 µM
BT-549 breast
  TGI: 1.47 µM
U251 CNS
  TGI: 13.9 µM
SF-539 CNS
  TGI: 0.795 µM
LXFL 529 NSCLC
  TGI: 9.26 µM
HCC-2998 colon
  TGI: 2.08 µM
SNB-75 CNS
  TGI: 1.08 µM
OVCAR-5 ovarian
  TGI: 3.66 µM
HOP-62 NSCLC
  TGI: 0.217 µM
NCI-H522 lung
  TGI: 1.5 µM
RXF 393 renal
  TGI: 0.957 µM
786-0 renal
  TGI: 12.5 µM
MALME-3M melanoma
  TGI: 0.806 µM
SN12C renal
  TGI: 8.19 µM
PC-3 prostate
  TGI: 2.39 µM
SF-295 CNS
  TGI: 1.16 µM
DU-145 prostate
  TGI: 0.176 µM
NCI-H23 lung
  TGI: 0.501 µM
